The text below walks through data of patent publication US12569482B2, “Methods and compositions for treating idiopathic pulmonary fibrosis” (priority 2018, dated 2026).

In general, Cmax refers to the highest concentration seen after dosing. In general, solubility refers to the concentration that dissolves in the medium under given conditions.

On the set-up of data set [1]: species or system C57BL/6 mice. The following applies: C57BL/6, mouse, in vivo, 2 h. As to the method:
(§1) On Day 5, the mice with bleomycin treatment were divided into three groups at random (referred to as Group 2-4, n=10), and orally administered with vehicle (0.5% Methyl cellulose), nintedanib (Kangmanlin Co. Ltd., prepared in 0.5% Methyl cellulose with a final concentration of 6.0 mg/mL) and fluconazole (Kangmanlin Co. Ltd., prepared in 0.5% Methyl cellulose with a final concentration of 7.0 mg/mL) at daily doses of 10 mL/kg, 60 mg/kg and 70 mg/kg, respectively. The mice in the Control group was administered with vehicle (0.5% Methyl cellulose) at a daily dose of 10 mL/kg. Mice body weights were measured and recorded on Day 1, 5, 12, 19 and 25.
Two hours post drug administration on Day 25, all animals were anaesthetized with pentobarbital (i.p., 65 mg/kg). Blood samples were collected from orbital vein, put in tubes pre-coated with EDTA-K2 (KANG JIAN, Cat #KJ202), centrifuged at 4000×g for 10 minutes at 4° C. and then stored at −80° C. for determination of plasma drug levels. Then, the trachea was exposed, and bronchoalveolar lavage fluid (BALF) was collected from each mouse by injecting 0.3 mL of saline into trachea close to the larynx for three times. After BALF collection, mice were perfused with saline, and all four lung lobes were collected from each mouse, fixed in 10% NBF solution, embedded in paraffin and cut into 5 μm-thick sections. […]

In data set [2] the test system is bleomycin-induced lung fibrosis. Kind of data set: Bleomycin induced IPF mouse model, Example 1 (oral nintedanib or fluconazole). In kind it is in vivo, C57BL/6 mice. The following applies: nintedanib 60 mg/kg. As to the method:
Forty male C57BL/6 mice (Nanjing Biomedical Research Institute of Nanjing University) were randomly divided into two groups on Day 1, 10 animals for one group (referred to as Control group or Group 1) and 30 for the other. The animals in the Control group were administered intratracheally with PBS at a dose of 2 mL/kg while the others were administered intratracheally with bleomycin (Cat #HY-17565, MCE) at a dose of 0.66 mg/kg.
as §1
Two hours post drug administration on Day 25, all animals were anaesthetized with pentobarbital (i.p., 65 mg/kg). Blood samples were collected from orbital vein, put in tubes pre-coated with EDTA-K2 (KANG JIAN, Cat #KJ202), centrifuged at 4000×g for 10 minutes at 4° C. and then stored at −80° C. for determination of plasma drug levels. Then, the trachea was exposed, and bronchoalveolar lavage fluid (BALF) was collected from each mouse by injecting 0.3 mL of saline into trachea close to the larynx for three times. After BALF collection, mice were perfused with saline, and all four lung lobes were collected from each mouse, fixed in 10% NBF solution, embedded in paraffin and cut into 5 μm-thick sections. The sections were de-paraffinized with xylene and ethanol and subject to Haematoxylin-Eosin, Masson Trichrome and α-SMA IHC staining.
The bronchoalveolar lavage fluid of 20 μL was mixed with 20 μL of trypan blue to determine the cell number. Then, the cells in the BALF were concentrated using a Cytospinat at 1,000 rpm for 5 minutes, smeared on slides and then stained with Diff-Quik stain. Cell types (alveolar macrophages, neutrophils, or lymphocytes) were determined by counting at least 200 cells using a standard hemocytometer. The rest BALFs were centrifuged and supernatants were collected and stored at −80° C. for soluble collagen analysis.
The Haematoxylin-Eosin staining was used to identify and quantitate the inflammatory cells in the tissues, and the total inflammation area was calculated using the AperioScanScope software.
The sections with Masson Trichrome staining were scored for pulmonary fibrosis according to the modified Ashcroft fibrosis rating criteria in Table 1 below. Each lung lobe was divided into 4 parts according to the distance from the main bronchus, i.e., the upper, upper middle, lower middle and lower parts, which were scored separately and averaged later.
α-SMA is a well characterized marker in fibrosis. Immunohistochemistry staining of α-SMA is often used to characterize and quantitate the tissue fibrosis. Increased staining of α-SMA often reflects accumulation of collagen-producing myofibroblasts. Before α-SMA IHC staining, the de-paraffinized sections were treated with citrate antigen retrieval solution (0.01 N citrate buffer, pH 6.0) at 100° C. for 10 minutes, and then incubated with rabbit polyclonal anti-α-SMA (1:400, ab5694, Abcam) for 1 hour followed by goat anti-rabbit HRP (K4003, Dako). DAB substrate kit (DAB0031, Maixin, Shanghai) was used for chromogenic staining. All sections were further counter-stained with hematoxylin. […] α-SMA staining areas were calculated using the AperioImageScope program.
Statistical analysis was performed using student's T-test, one-way or two-way ANOVA followed by post-hoc Dunnett's test if significant. […] The difference was considered significant when p<0.05. *p<0.05, **p<0.01, ***[…].

For data set [3] the following is noted: mice, cited from earlier work.
A short description of data set [4]: Plasma drug levels, Example 2. The following applies: C57BL/6, mouse. It counts as in vivo, C57BL/6 mice. As to the method: On Day 5, the mice with bleomycin treatment were divided into four groups at random (referred to as Group 2-5, n=10), and orally administered with vehicle (DMSO: PEG400=1:9, V/V), itraconazole (Kangmanlin Co. Ltd. prepared in DMSO/PEG400 with a final concentration of 1.5 mg/mL), nintedanib (Kangmanlin Co. Ltd., prepared in DMSO/PEG400 with a final concentration of 6.0 mg/mL), and itraconazole+nintedanib (prepared in DMSO/PEG400 with final concentrations of 1.5 mg/mL and 6.0 mg/mL) at daily doses of 10 mL/kg, 15 mg/kg, 60 mg/kg and 15+60 mg/kg, respectively. The mice in the Control group was administered with vehicle (DMSO/PEG400) at a daily dose of 10 mL/kg. Mice body weights were measured and recorded on Day 1, 5, 12, 19 and 21.
Two hours post drug administration on Day 21, all animals were anaesthetized with pentobarbital (i.p., 60 mg/kg). Blood sample, bronchoalveolar lavage fluid (BALF) and lung lobes were collected from each mouse and then processed following the protocols in Example 1.

For data set [5] the following is noted: cited from earlier work.
Data set [6] can be described thus: Drug concentrations in plasma and lung tissues after 5 days of oral or inhalation dosing. In kind it is in vivo, healthy male mice. To be noted: male, mouse; for Kp at 2 h: lung tissue and plasma, read-out: levels in lung tissues relative to plasma; for concentration at 2 h: q.d., 5 days, two hours after last dose. The protocol:
In a separate experiment, three groups of healthy male mice were treated with itraconazole for 5 consecutive days. Animals in Group A were orally administered with itraconazole in DMSO:PEG400 (1:9, v/v) at a daily dose of 15 mg/kg, while mice in Group B and C were subject to 3-min inhalation treatment of itraconazole of 15 mg/mL and 50 mg/mL, respectively. Two hours after the last dose, plasma samples and lung tissues were collected as described above. These samples were sent to an independent bioanalytical service lab to determine the levels of itraconazole, and results were summarized in Table 3.

The conditions of data set [7]: cited from earlier work. The source holds these as a separate data set.
A short description of data set [8]: Plasma exposure levels in the bleomycin-induced lung fibrosis mouse study. In kind it is in vivo. The source says:
Because the relevancy to human efficacy in bleomycin-induced lung fibrosis mouse model, though well established in preclinical studies (Moeller, 2008), has not been established, a new version of the bleomycin-induced lung fibrosis mouse study protocol was designed, with marketed anti-fibrotic drugs, namely pirfenidone and nintedanib, as positive controls.

In data set [9] the test system is sol elastase activity of CF sputum. To be noted: unprocessed CF sputum directly treated; cited from earlier work.

“Also recorded” adds a separate entry of the source. Where two headings read alike, the source gives them in different places.

Consider `OC(Cn1cncn1)(Cn1cncn1)c1ccc(F)cc1F` [fluconazole], for which the “plasma level relative to that of itraconazole at 15 mg/kg” value in data set [1] is reported as “over 62 fold”. Also, the “reduction of lung inflammation area” value in data set [2] (Haematoxylin-Eosin staining, fluconazole 70 mg/kg p.o. daily) is listed as “not observed”. Also, in data set [2] (Masson Trichrome staining, fluconazole 70 mg/kg p.o. daily), the “reduction of modified Ashcroft score” value is reported as “not observed”. In data set [2] (fluconazole 70 mg/kg daily dose), the “anti-IPF activities / fibrosis related endpoint measurements (overall)” value is recorded as “did not show detectable changes; also recorded: failed to show any significant anti-IPF activities”. The BALF collagen levels result in data set [2] (oral daily Day 5-25, fluconazole 70 mg/kg, vs bleomycin + vehicle) is given as “No collagen level reduction”. Also, in [2] (α-SMA IHC, fluconazole 70 mg/kg p.o. daily), the “reduction of α-SMA staining area” value is on record as “not observed”.
For `CCC(C)n1ncn(-c2ccc(N3CCN(c4ccc(OCC5COC(Cn6cncn6)(c6ccc(Cl)cc6Cl)O5)cc4)CC3)cc2)c1=O` (centres unmarked) [itraconazole], in data set [3] (aerosolized dose), the “serum levels relative to pulmonary concentrations” value was 25 to 50 times lower. In addition, in data set [3] (after completion of nebulization), the “time to effective anti-fungal pulmonary concentrations” value is reported as not above 60 min. Also, the concentration at 2 h turned out to be 700 ng/mL in data set [4] (oral, Day 21, itraconazole 15 mg/kg, nintedanib 60 mg/kg p.o. daily, read-out: two-hour post dosing plasma level, single agent); 518 ng/mL in data set [4] (po, Day 21, 15+60 mg/kg p.o. daily, read-out: two-hour post dosing plasma drug level, itraconazole and nintedanib combined in administration); 590 ng/mL in data set [6] (lung tissue, inhaled, Group B: i.h., 15 mg/mL for 3 min, read-out: Lung Tissue Concentrations); 1400 ng/mL in data set [6] (lung tissue, inhaled, Group C: i.h., 50 mg/mL for 3 min, read-out: Lung Tissue Concentrations); 172 ng/mL in data set [6] (lung tissue, po, Group A: p.o., 15 mg/kg, read-out: Lung Tissue Concentrations); 80.9 ng/mL in data set [6] (plasma, inhaled, Group B: i.h., 15 mg/mL for 3 min, read-out: Plasma Concentrations). Also, the concentration at 2 h in data set [6] (plasma, inhaled, Group C: i.h., 50 mg/mL for 3 min, read-out: Plasma Concentrations) came out at 168 ng/mL; in data set [6] (plasma, po, Group A: p.o., 15 mg/kg, read-out: Plasma Concentrations), 133 ng/mL. Also, the “Cmax at steady state” value in data set [5] (200 mg (PO/BID)) was 2000 ng/mL; in [5] (200 mg (PO/QD)) it was 1100 ng/mL. The “time to steady state plasma levels” value in data set [5] (post oral administration, multiple dosing) was “around 15 days”. For the same molecule, the “time at which peak plasma levels are reached” value in data set [5] (post oral dose) was 2 to 5 h. The Kp at 2 h in [6] (inhaled, 5 days of inhalation at 15 mg/mL for 3 min) is approximately 7.3; in data set [6] (inhaled, inhalation dose of 50 mg/mL for 3 min), 8.3; in data set [6] (5 days of oral dosing at 15 mg/kg) it was approximately 1.3. Moreover, the solubility was 4 to 6 µg/mL in data set [7] (in 0.1N HCl) and 0.001 to 0.004 µg/mL in data set [7] (in water). Besides, the plasma exposure level was determined as 394 ± 66 ng/mL in data set [8] (itraconazole alone at 7.5 mg/kg) and 899 ± 192 ng/mL in data set [8] (itraconazole alone at 15 mg/kg).
Take DNase: the “increase of sol elastase activity” value in data set [9] is recorded as 190%.

B1: reduced rhTrx: stable reduced form of recombinant human thioredoxin (protein, UniProt P10599 2-105, looked up)
Thioredoxin: VKQIESKTAFQEALDAAGDKLVVVDFSATWCGPCKMIKPFFHSLSEKYSNVIFLEVDVDDCQDVASECEVKCMPTFQFFKKGQKVGEFSGANKEKLEATINELV
modifications: reduced form
Turning to B1, the “increase of sol elastase activity” value in [9] is listed as 60%.
